Test results as given in PubChem BioAssay AID1963446 (Molecular Pharmacology Branch, DTP, NCI, 2024).

System: 993429-296-R-J1-PDC complex spheroid growth, percent test/control
Assay: Anticancer human tumor 993429-296-R-J1-PDC patient-derived uterine sarcoma cell line growth inhibition [Asc]
Conditions: for IC50: curve of first compound; for viability, T/C: stronger effect = lower value
In short: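 Complex spheroids combining tumor cells with HUVEC endothelial cells and human MSCs, at 37 degrees C, 5% CO2; agents tested alone or combined, half-log dilutions from at or near clinical Cmax, or 10 microM if Cmax unknown.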
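Further: spheroids exposed to compounds for seven days.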

In the case of `Cn1ncnc1[C@H]1c2n[nH]c(=O)c3cc(F)cc(c23)N[C@@H]1c1ccc(F)cc1` + CCN1C(C(=O)NC23CCC(C(=O)O)(CC2)CC3)C(c2cccc(Cl)c2F)C2(C(=O)Nc3cc(Cl)ccc32)C12CCCCC2, the IC50 (second compound 0.03 µM) is reported as over 100 nM, the IC50 (second compound 0.0949 µM) is reported as 75.8 nM and the IC50 (second compound 0.3 µM) is reported as 65.3 nM. For the same compound, the IC50 (second compound 0.949 µM) was over 100 nM, the IC50 (second compound 3 µM) was 66.2 nM and the viability, T/C (second compound 0.03 µM, first compound 0.000316 µM) was 114%. For the same compound, the viability, T/C (second compound 0.03 µM, first compound 0.001 µM) was 107%, the viability, T/C (second compound 0.03 µM, first compound 0.00316 µM) was 104% and the viability, T/C (second compound 0.03 µM, first compound 0.01 µM) was 62%. The viability, T/C (second compound 0.03 µM, first compound 0.0316 µM) was 62%, the viability, T/C (second compound 0.03 µM, first compound 0.1 µM) was 45.1% and the viability, T/C (second compound 0.0949 µM, first compound 0.000316 µM) was 94%. It also gave a viability, T/C (second compound 0.0949 µM, first compound 0.001 µM) of 102%, a viability, T/C (second compound 0.0949 µM, first compound 0.00316 µM) of 89.4% and a viability, T/C (second compound 0.0949 µM, first compound 0.01 µM) of 73.6%. For the same compound, the viability, T/C (second compound 0.0949 µM, first compound 0.0316 µM) was 64.6%, the viability, T/C (second compound 0.0949 µM, first compound 0.1 µM) was 45.4% and the viability, T/C (second compound 0.3 µM, first compound 0.000316 µM) was 96.5%. It also gave a viability, T/C (second compound 0.3 µM, first compound 0.001 µM) of 104%, a viability, T/C (second compound 0.3 µM, first compound 0.00316 µM) of 90.6% and a viability, T/C (second compound 0.3 µM, first compound 0.01 µM) of 77.3%. The viability, T/C (second compound 0.3 µM, first compound 0.0316 µM) was 66%, the viability, T/C (second compound 0.3 µM, first compound 0.1 µM) was 41.4% and the viability, T/C (second compound 0.949 µM, first compound 0.000316 µM) was 109%. For the same compound, the viability, T/C (second compound 0.949 µM, first compound 0.001 µM) was 101%, the viability, T/C (second compound 0.949 µM, first compound 0.00316 µM) was 92.3% and the viability, T/C (second compound 0.949 µM, first compound 0.01 µM) was 65.1%. For the same compound, the viability, T/C (second compound 0.949 µM, first compound 0.0316 µM) was 59.9%, the viability, T/C (second compound 0.949 µM, first compound 0.1 µM) was 48% and the viability, T/C (second compound 3 µM, first compound 0.000316 µM) was 91.5%. For the same compound, the viability, T/C (second compound 3 µM, first compound 0.001 µM) was 91.8%, the viability, T/C (second compound 3 µM, first compound 0.00316 µM) was 82.8% and the viability, T/C (second compound 3 µM, first compound 0.01 µM) was 72.5%. For the same compound, the viability, T/C (second compound 3 µM, first compound 0.0316 µM) was 61.5% and the viability, T/C (second compound 3 µM, first compound 0.1 µM) was 43.9%.

Compound `CCN1CCN(Cc2ccc(Nc3ncc(F)c(-c4cc(F)c5nc(C)n(C(C)C)c5c4)n3)nc2)CC1` + Cc1c(S(C)(=O)=O)c(-c2cc(F)cc(N3CCN(c4ccc(NS(=O)(=O)c5ccc(NC(CCN6CCC(C(=O)OCCCP(=O)(O)O)CC6)CSc6ccccc6)c(S(=O)(=O)C(F)(F)F)c5)cc4)CC3)c2)c(-c2ccc(Cl)cc2)n1C(C)C has an IC50 (second compound 0.1 µM) of over 1000 nM, an IC50 (second compound 0.316 µM) of 859 nM and an IC50 (second compound 1 µM) of 344 nM. For the same compound, the IC50 (second compound 3.16 µM) was under 3.16 nM, the IC50 (second compound 10 µM) was 463 nM and the viability, T/C (second compound 0.1 µM, first compound 0.00316 µM) was 70.2%. It also gave a viability, T/C (second compound 0.1 µM, first compound 0.01 µM) of 81.9%, a viability, T/C (second compound 0.1 µM, first compound 0.0316 µM) of 64.3% and a viability, T/C (second compound 0.1 µM, first compound 0.1 µM) of 60.6%. The viability, T/C (second compound 0.1 µM, first compound 0.316 µM) was 85%, the viability, T/C (second compound 0.1 µM, first compound 1 µM) was 50.7% and the viability, T/C (second compound 0.316 µM, first compound 0.00316 µM) was 54.2%. It also gave a viability, T/C (second compound 0.316 µM, first compound 0.01 µM) of 55.5%, a viability, T/C (second compound 0.316 µM, first compound 0.0316 µM) of 63.5% and a viability, T/C (second compound 0.316 µM, first compound 0.1 µM) of 64.7%. The viability, T/C (second compound 0.316 µM, first compound 0.316 µM) was 64.3%, the viability, T/C (second compound 0.316 µM, first compound 1 µM) was 32.5% and the viability, T/C (second compound 1 µM, first compound 0.00316 µM) was 48.1%. For the same compound, the viability, T/C (second compound 1 µM, first compound 0.01 µM) was 52.4%, the viability, T/C (second compound 1 µM, first compound 0.0316 µM) was 49.5% and the viability, T/C (second compound 1 µM, first compound 0.1 µM) was 58.7%. The viability, T/C (second compound 1 µM, first compound 0.316 µM) was 55%, the viability, T/C (second compound 1 µM, first compound 1 µM) was 16.5% and the viability, T/C (second compound 3.16 µM, first compound 0.00316 µM) was 37.3%. It also gave a viability, T/C (second compound 3.16 µM, first compound 0.01 µM) of 45.3%, a viability, T/C (second compound 3.16 µM, first compound 0.0316 µM) of 46.6% and a viability, T/C (second compound 3.16 µM, first compound 0.1 µM) of 41.8%. It also gave a viability, T/C (second compound 3.16 µM, first compound 0.316 µM) of 38.7%, a viability, T/C (second compound 3.16 µM, first compound 1 µM) of 16.2% and a viability, T/C (second compound 10 µM, first compound 0.00316 µM) of 70.5%. The viability, T/C (second compound 10 µM, first compound 0.01 µM) was 67.4%, the viability, T/C (second compound 10 µM, first compound 0.0316 µM) was 71.2% and the viability, T/C (second compound 10 µM, first compound 0.1 µM) was 76.9%. The viability, T/C (second compound 10 µM, first compound 0.316 µM) was 67.4% and the viability, T/C (second compound 10 µM, first compound 1 µM) was 14%.
